Source: US20060229258A1, “Steroidal compositions containing hydroxycarboxylic acids and methods of using the same” (priority 2003, published 2006)

Experiment: Thermal degradation of prednicarbate during preparation of the emulsion
Type: physicochemical
Settings: in the emulsion during preparation
Description: In a particularly key aspect of the present inventive process, the emulsion is cooled from a temperature of about 55 to about 85° C. to a temperature of about 25 to about 45° C. before the prednicarbate is dispersed therein. This cooling step is particularly important because a substantial amount of prednicarbate degradation products will form at temperatures above 63° C. Accordingly, it is necessary to cool the emulsion before adding the prednicarbate to maintain the high prednicarbate purity and low amount of prednicarbate degradation products essential to the present inventive compositions.

temperatures at which a substantial amount of prednicarbate degradation products will form: above 63 °C
SMILES: CCOC(=O)O[C@]1(C(=O)COC(=O)CC)CC[C@H]2[C@@H]3CCC4=CC(=O)C=C[C@]4(C)[C@H]3[C@@H](O)C[C@@]21C [prednicarbate]
